Reference: PMC7345083, “Vancomycin-Lipopeptide Conjugates with High Antimicrobial Activity on Vancomycin-Resistant Enterococci” (Pharmaceuticals, 2020)
Converted amounts (≈) assume the structure as drawn.

What was measured:
[1] = system: E. faecium ATCC 51559 (vanA); type: cell-based, Enterococcus faecium; settings: for MIC median / MIC range: ATCC 51559, 18 h
Procedure: (§1) The minimum inhibitory concentration (MIC) was determined by microdilution following the EUCAST and CLSI guidelines via the broth microdilution assay on a 96-well plate. Substances were dissolved in saline solution (0.9%) at a concentration equimolar to 1.28 mg/mL vancomycin. With an increasing hydrophobicity, some substances had to be pre-dissolved in DMSO. The final concentration of DMSO remained below 1.5% and was compared to the DMSO control (no antimicrobial effect was observed up to the highest concentration tested (10%)). All substances were serially diluted on the 96-well plate using Mueller-Hinton-Broth II (cation adjusted). Vancomycin was always used as a control. For bacterial loading, an overnight culture of the referring strain was taken and adjusted to a turbidity corresponding to 10^8 cfu/mL. The bacterial suspension was further diluted to load a bacterial number of 10^6 cfu/mL on the 96-well plate and incubate it for 18 h at 35 ± 1 °C, as described before. MIC was defined as the lowest concentration without visible growth.

[2] = system: E. faecalis ATCC 51299 (vanB); type: cell-based, Enterococcus faecalis; settings: ATCC 51299, 18 h
Procedure: as §1

[3] = system: Enterococcus faecium UL602570 (vanA, clinical isolate); type: cell-based; settings: for MIC median / MIC range: UL602570 (vanA, clinical isolate, 18 h)
Procedure: as §1

[4] = system: Enterococcus casseliflavus ATCC 700327 (vanC); type: cell-based; settings: ATCC 700327, 18 h
Procedure: as §1

[5] = system: human blood (red blood cells); settings: cited from earlier work
Procedure: In order to investigate the hemolytic behavior, human blood from healthy volunteers was taken and exposed to different concentrations of selected conjugates. As a control, unmodified vancomycin, known to have non-hemolytic properties up to 12 mM [40], was used (Figure 4).

[6] = comparison statement of the abstract, no reference given; cited from earlier work
Source text: Multidrug-resistant bacteria represent one of the most important health care problems worldwide. While there are numerous drugs available for standard therapy, there are only a few compounds capable of serving as a last resort for severe infections. Therefore, approaches to control multidrug-resistant bacteria must be implemented. Here, a strategy of reactivating the established glycopeptide antibiotic vancomycin by structural modification with polycationic peptides and subsequent fatty acid conjugation to overcome the resistance of multidrug-resistant bacteria was followed. This study especia ...

[7] = system: human blood (red blood cells); assay: Hemolysis (hemoglobin release assay); type: cell-based; settings: concentrations above 100 µM, range applied 1-900 µM, 2 h, 37 °C
Procedure: Hemolytic activity was determined by the hemoglobin release assay on a 96-well plate. Fresh venal blood was collected from volunteers in anticoagulant tubes. The blood samples were centrifuged for 3 min at 2500 rpm, and afterwards, the supernatant was discarded and PBS (pH 7.4) was added. The tubes were gently inverted, and the previous step was repeated two times. Substances were serial two-fold diluted in PBS (pH 7.4) on a 96-well V-bottom plate. Triton X-100 (1% in PBS) was used as a positive control (Xpos). […] In total, 50 µL of the purified blood samples was added to all columns. After 2 h incubation at 37 °C, the 96-well plate was centrifuged at 4000 rpm for 2 min. The supernatant was transferred to a new flat-bottom 96-well plate and absorption was measured at 554 nm. The percentage of hemolysis was calculated according to the following equation:% hemolysis = 100 × (Xsample − Xblank)/(Xpos − Xblank).(1)

| Compound | MIC median [1] [µg/mL] | MIC range [1] [µg/mL] | MIC median [2] [µg/mL] | MIC median [3] [µg/mL] | MIC range [3] [µg/mL] | MIC median [4] [µg/mL] | MIC range [4] [µg/mL] | non-hemolytic properties up to (concentration) [5] | excretion route [6] | resistant to up to (vancomycin concentration) ([1]; E. faecium ATCC 51559, vanA) | resistance against vancomycin up to (concentration) ([3]; E. faecium UL602570, vanA clinical isolate) | hemolytic effect at higher concentrations [7] |
| --- | --- | --- | --- | --- | --- | --- | --- | --- | --- | --- | --- | --- |
| CCCCCCCCCCCC(=O)N[C@@H](CCCNC(=N)N)C(=O)N[C@@H](CCCNC(=N)N)C(=O)N[C@@H](CCCNC(=N)N)C(=O)N[C@@H](CSC1CC(=O)N(CC2CCC(C(=O)N(C)[C@H](CC(C)C)C(=O)N[C@H]3C(=O)N[C@@H](CC(N)=O)C(=O)N[C@H]4C(=O)N[C@H]5C(=O)N[C@H](C(=O)N[C@H](C(=O)O)c6cc(O)cc(O)c6-c6cc5ccc6O)[C@H](O)c5ccc(c(Cl)c5)Oc5cc4cc(c5O[C@@H]4O[C@H](CO)[C@@H](O)[C@H](O)[C@H]4O[C@H]4C[C@](C)(N)[C@H](O)[C@H](C)O4)Oc4ccc(cc4Cl)[C@H]3O)CC2)C1=O)C(N)=O (stereo partly shown) [VN-R3C-C12] | 4.72 (≈ 1.93 µM) | 4.72 to 9.44 | 4 (≈ 1.64 µM) | 2.37 (≈ 0.971 µM) | 2.37 to 4.73 | 2.5 (≈ 1.02 µM) | 1 to 4 | – | – | – | – | – |
| CCCCCCCCCCCC(=O)N[C@@H](CCCNC(=N)N)C(=O)N[C@@H](CCCNC(=N)N)C(=O)N[C@@H](CCCNC(=N)N)C(=O)N[C@@H](CSC1CC(=O)N(CC2CCC(C(=O)NCCN[C@@]3(C)C[C@H](O[C@H]4[C@H](Oc5c6cc7cc5Oc5ccc(cc5Cl)[C@@H](O)[C@@H](NC(=O)[C@@H](CC(C)C)NC)C(=O)N[C@@H](CC(N)=O)C(=O)N[C@H]7C(=O)N[C@H]5C(=O)N[C@H](C(=O)N[C@H](C(=O)O)c7cc(O)cc(O)c7-c7cc5ccc7O)[C@H](O)c5ccc(c(Cl)c5)O6)O[C@H](CO)[C@@H](O)[C@@H]4O)O[C@@H](C)[C@H]3O)CC2)C1=O)C(N)=O (stereo partly shown) [VV-R3C-C12] | 3.88 (≈ 1.56 µM) | 3.88 to 7.75 | 4 (≈ 1.61 µM) | 0.24 (≈ 0.0967 µM) | 0.06 to 0.48 | 2.5 (≈ 1.01 µM) | 0.5 to 4 | – | – | – | – | – |
| CN[C@H](CC(C)C)C(=O)N[C@H]1C(=O)N[C@@H](CC(N)=O)C(=O)N[C@H]2C(=O)N[C@H]3C(=O)N[C@H](C(=O)N[C@H](C(=O)O)c4cc(O)cc(O)c4-c4cc3ccc4O)[C@H](O)c3ccc(c(Cl)c3)Oc3cc2cc(c3O[C@@H]2O[C@H](CO)[C@@H](O)[C@H](O)[C@H]2O[C@H]2C[C@](C)(N)[C@H](O)[C@H](C)O2)Oc2ccc(cc2Cl)[C@H]1O [vancomycin] | – | – | – | – | – | – | – | up to 12 mM | rapidly excreted by the kidneys | up to 1024 mg/L | up to 640 mg/L | could neither be observed |
